According to PubChem BioAssay (NCI):
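Test compounds were applied to cells in 96-well plates for 48 hours at 5 doses. GI50 marks 50% less growth. TGI denotes the concentration required for complete inhibition of growth.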

Legend:
Assay in all cases: NCI anticancer screen, dose series, 48 h
[1] = test system: NCI/ADR-RES ovarian
[2] = test system: TK-10 renal
[3] = test system: BT-549 breast
[4] = test system: HT29 colon
[5] = test system: 786-0 renal
[6] = test system: SR leukemia
[7] = test system: SF-539 CNS
[8] = test system: SW-620 colon
[9] = test system: COLO 205 colon
[10] = test system: UO-31 renal
[11] = test system: RPMI-8226 leukemia
[12] = test system: SK-OV-3 ovarian
[13] = test system: OVCAR-3 ovarian
[14] = test system: SNB-75 CNS
[15] = test system: EKVX NSCLC
[16] = test system: SK-MEL-2 melanoma
[17] = test system: OVCAR-5 ovarian
[18] = test system: SK-MEL-5 melanoma
[19] = test system: SN12C renal
[20] = test system: HOP-62 NSCLC
[21] = test system: MCF7 breast
[22] = test system: NCI-H226 lung
[23] = test system: RXF 393 renal
[24] = test system: HCC-2998 colon
[25] = test system: K-562 leukemia
[26] = test system: IGROV1 ovarian
[27] = test system: HS 578T breast
[28] = test system: NCI-H23 lung
[29] = test system: MDA-MB-231 breast
[30] = test system: SK-MEL-28 melanoma
[31] = test system: PC-3 prostate
[32] = test system: T-47D breast
[33] = test system: UACC-62 melanoma
[34] = test system: CCRF-CEM leukemia
[35] = test system: MOLT-4 leukemia
[36] = test system: NCI-H522 lung
[37] = test system: KM12 colon
[38] = test system: HCT-15 colon
[39] = test system: OVCAR-8 ovarian
[40] = test system: A549 NSCLC
[41] = test system: HOP-92 NSCLC
[42] = test system: M14 melanoma
[43] = test system: HL-60(TB) leukemia
[44] = test system: CAKI-1 renal
[45] = test system: HCT-116 colon
[46] = test system: ACHN renal
[47] = test system: MDA-MB-435
[48] = test system: OVCAR-4 ovarian
[49] = test system: SNB-19 CNS
[50] = test system: MALME-3M melanoma
[51] = test system: NCI-H460 lung
[52] = test system: LOX IMVI melanoma
[53] = test system: UACC-257 melanoma
[54] = test system: MDA-MB-468 breast
[55] = test system: DU-145 prostate
[56] = test system: A498 renal
[57] = test system: SF-268 CNS
[58] = test system: U251 CNS
[59] = test system: SF-295 CNS

CN(CCO)c1oc(-c2ccccc2)nc1[P+](c1ccccc1)(c1ccccc1)c1ccccc1
GI50 [1]: > 100 µM | TGI [1]: > 100 µM | GI50 [2]: 3.5 µM | TGI [2]: 15.2 µM | GI50 [3]: 1.78 µM | TGI [3]: 7.08 µM | GI50 [4]: 2.82 µM | TGI [4]: 21.2 µM | GI50 [5]: 5.31 µM | TGI [5]: 20.8 µM | GI50 [6]: 1.64 µM | TGI [6]: 12.4 µM | GI50 [7]: 2.74 µM | TGI [7]: 12.1 µM | GI50 [8]: 2.9 µM | TGI [8]: 23.1 µM | GI50 [9]: 1.46 µM | TGI [9]: 3.28 µM | GI50 [10]: 19 µM | TGI [10]: 54.3 µM | GI50 [11]: 0.393 µM | TGI [11]: 4.03 µM | GI50 [12]: 2.98 µM | TGI [12]: 8.21 µM | GI50 [13]: 1.08 µM | TGI [13]: 12.6 µM | GI50 [14]: 1.28 µM | TGI [14]: 5.89 µM | GI50 [15]: 2.35 µM | TGI [15]: 13.4 µM | GI50 [16]: 1.96 µM | TGI [16]: 5.43 µM | GI50 [17]: 2.27 µM | TGI [17]: 8.21 µM | GI50 [18]: 1.15 µM | TGI [18]: 2.52 µM | GI50 [19]: 2.4 µM | TGI [19]: 6.88 µM | GI50 [20]: 3.49 µM | TGI [20]: 13 µM | GI50 [21]: 1.21 µM | TGI [21]: 6.84 µM | GI50 [22]: 2.73 µM | TGI [22]: 10.9 µM | GI50 [23]: 1.94 µM | TGI [23]: 9.64 µM | GI50 [24]: 1.82 µM | TGI [24]: 12.4 µM | GI50 [25]: 1.01 µM | TGI [25]: 13.6 µM | GI50 [26]: 0.802 µM | TGI [26]: 7.45 µM | GI50 [27]: 2.39 µM | TGI [27]: 9.08 µM | GI50 [28]: 2.27 µM | TGI [28]: 7.25 µM | GI50 [29]: 1.36 µM | TGI [29]: 4.18 µM | GI50 [30]: 1.54 µM | TGI [30]: 12.7 µM | GI50 [31]: 1.75 µM | TGI [31]: 10.4 µM | GI50 [32]: 0.517 µM | TGI [32]: 11.2 µM | GI50 [33]: 1.23 µM | TGI [33]: 5.97 µM | GI50 [34]: 2.39 µM | TGI [34]: 12.2 µM | GI50 [35]: 2.77 µM | TGI [35]: 11.8 µM | GI50 [36]: 0.854 µM | TGI [36]: 4.05 µM | GI50 [37]: 2.12 µM | TGI [37]: 10.2 µM | GI50 [38]: 13.5 µM | TGI [38]: 31.2 µM | GI50 [39]: 3.33 µM | TGI [39]: 16.3 µM | GI50 [40]: 5.22 µM | TGI [40]: 34.6 µM | GI50 [41]: 1.22 µM | TGI [41]: 4.9 µM | GI50 [42]: 2.81 µM | TGI [42]: 12.4 µM | GI50 [43]: 0.535 µM | TGI [43]: 2.73 µM | GI50 [44]: 4 µM | TGI [44]: 24.9 µM | GI50 [45]: 2.84 µM | TGI [45]: 12 µM | GI50 [46]: 8.36 µM | TGI [46]: 41.6 µM | GI50 [47]: 1.6 µM | TGI [47]: 9.66 µM | GI50 [48]: 2.79 µM | TGI [48]: 27.1 µM | GI50 [49]: 2.01 µM | TGI [49]: 7.95 µM | GI50 [50]: 1.6 µM | TGI [50]: 9.14 µM | GI50 [51]: 2.74 µM | TGI [51]: 12.4 µM | GI50 [52]: 2.21 µM | TGI [52]: 10.1 µM | GI50 [53]: 1.95 µM | TGI [53]: 9.63 µM | GI50 [54]: 0.285 µM | TGI [54]: 1.37 µM | GI50 [55]: 3.26 µM | TGI [55]: 13.7 µM | GI50 [56]: 6.82 µM | TGI [56]: 22.8 µM | GI50 [57]: 3.27 µM | TGI [57]: 14 µM | GI50 [58]: 2.31 µM | TGI [58]: 13.6 µM | GI50 [59]: 2.62 µM | TGI [59]: 9.92 µM
